Test results: patent US20150086627A1, “DOSAGE FORMS OF HALOFUGINONE AND METHODS OF USE” (priority 2012, published 2015)
Structures can show the parent of a compound that is named as a salt. Where two headings read alike, the source gives them in different places.

Key:
[1] = tested on: Plasmodium berghei; conditions: Plasmodium berghei-infected mice; cited from earlier work
[2] = Plasma pharmacokinetics of halofuginone in male beagle dogs (Example B); format: in vivo; conditions: dog
Description: Five groups of five male beagle dogs (25 total dogs) were orally administered various compositions of halofuginone solutions. […] The dogs were fasted overnight prior to administration, and food was returned four hours post-administration. Plasma was drawn from each animal at the time of administration, and then at eight successive time points (0.5, 1, 2, 4, 8, 12, 24, and 48 hours post-administration).
The plasma samples, collected from the dogs at the various time points, were assayed for halofuginone concentrations using HPLC-MS/MS (ACE Excel 2C18 AR, 50×2.1 mm column). [Cmax: maximum observed halofuginone concentration; tmax: time point at Cmax; AUC(0-t): AUC to the last non-zero concentration (t is the corresponding time); AUC(0-∞): AUC(0-∞)=AUC(0-t)+AUC(t-∞); t1/2: half-life; time taken for drug plasma concentration to fall by one-half; Vz_obs: observed volume of distribution; Cl_obs: observed clearance]

[3] = tested on: cell lines; conditions: cited from earlier work
[4] = tested on: vascular SMC and fibroblasts; conditions: cited from earlier work
[5] = tested on: human leiomyosarcoma tumor cells; conditions: low concentrations; cells stimulated by serum or HB-EGF; cited from earlier work
[6] = tested on: mice; conditions: mouse, in vivo, cited from earlier work
[7] = tested on: dogs; test: Previous study in dogs, daily oral dosing for up to 28 days; format: in vivo
Description: The dose levels were selected based on the results of a previous study in dogs in which the high-dose group was dosed at 0.15 mg/kg/day for up to 28 days (this dose was tolerated for the entire course of the study).

[8] = tested on: mdx mice; conditions: cited from earlier work
[9] = Plasma pharmacokinetics of Halofuginone hydrobromide in Beagle dogs (Example C); conditions: dog, in vivo; for half-life: t1/2
Description: Blood samples were collected from the jugular, cephalic, or saphenous veins into tubes containing EDTA at the following time points: 0, 0.5, 1, 2, 4, 8, 12, 24, and 48 h postdose. Blood samples were kept on wet ice until processing. Blood samples were centrifuged at 3200 RPM for 10 min at ˜5° C. Plasma samples were directly transferred to a 96-well plate tube (1.1 mL). Plug caps were placed on the tubes. Plasma samples were stored at −20±5° C. until they were shipped for analysis.
Statistical analysis of PK parameters for dogs treated with both enteric and oral solutions were calculated using Excel® spreadsheets. Summary statistics were derived for the following PK parameters for each dog receiving both the dog EC tablets and the oral drug as a clear solution in Group 1: • Cmax (ng/mL): Maximum Observed Concentration • tmax (h): Time Point at Cmax • AUC(0−t) (ng·h/mL): AUC to the last non-zero concentration (t is the corresponding time) • AUC(0−∞) (ng·h/mL): AUC(0-∞)=AUC(0-t)+AUC(t-∞) • t1/2(h): Half-life; time taken for drug plasma concentration to fall by one-half • % F: Bioavailability; [AUC(0-t)×*Dose IV (mg/kg)]/[AUC(0-t)IV*Dose×(mg/kg)] Paired differences for each dog were determined by subtracting the summary PK value as follows: […]

[10] = tested on: beagle dogs; conditions: 6 Beagle dogs, oral solution 0.15 mg/kg
Description: Two groups of 6 male Beagle dogs were dosed with two formulations or two routes of administration of Halofuginone hydrobromide. In a cross-over study design, one group received an oral (PO) dose at ˜0.15 mg/kg as enteric-coated (EC) tablets in a gelatin capsule and then another oral dose at 0.15 mg/kg as a solution 7 days later. The second group received a subcutaneous (SC) dose at 0.03 mg/kg as a solution and then an intravenous (IV) dose at 0.05 mg/kg as a solution. The test article was administered once for each dose level and dosage form. The animals were dosed once a week or after completing at least a 7 day washout period. The dose formulations of Halofuginone hydrobromide were EC tablets or 0.3 mg/mL solutions. The EC tablets contained 0.075 mg of Halofuginone hydrobromide. The tablets (20/dog) were loaded into a gelatin capsule prior to dosing.
Each animal received a physical examination prior to dosing, with cage side observations for mortality and morbidity twice daily thereafter. Detailed clinical observations were performed prior to dosing and at 15 minute (min) intervals during the first 2 hours (h) postdose, at 4, 8, and 24 h postdose on dosing days. […]

[11] = male, beagle, in vivo, po, 0.15 mg/kg
[12] = male, Beagle, iv, 0.05 mg/kg, Mean Conc. (plasma)
[13] = male, Beagle, iv, 0.05 mg/kg, Sample Conc. (plasma)
[14] = male, Beagle, po, 0.15 mg/kg, Mean Conc. (plasma)
[15] = male, Beagle, sc, 0.03 mg/kg, Mean Conc. (plasma)
[16] = male, Beagle, sc, 0.03 mg/kg, Sample Conc. (plasma)

In the case of O=C(C[C@@H]1NCCC[C@H]1O)Cn1cnc2cc(Br)c(Cl)cc2c1=O [Halofuginone hydrobromide, 7-Bromo-6-chloro-3-[3-[(2S,3R)-3-hydroxy-2-piperidinyl]-2-oxopropyl]-4-quinazolinone], the curative effects [1] is given as “displayed curative effects”, the parasitemias [1] is given as “reduce parasitemias to undetectable levels” and the half-life ([2]; plasma, male beagle dogs, oral 0.15 mg/kg aqueous solution, mean) is given as 889 min. For the same compound, the AUC(0-inf) [2, 11] was 49.1 ng·h/mL, the AUC(0-t) [2, 11] was 39.5 ng·h/mL and the Cl_obs [2, 11] was 57.8 mL/min/kg. The Cmax [2, 11] was 5.26 ng/mL, the Tmax [2, 11] was 54 min and the Vz_obs [2, 11] was 70.73 L/kg. The angiogenesis inhibition [3] was “effective angiogenesis inhibitor”, the “growth of vascular SMC and fibroblasts” value [4] was “inhibits autocrine growth of vascular SMC and fibroblasts” and the “inhibition of DNA synthesis” value [5] was “strong inhibitor of DNA synthesis”. For the same compound, the gastrointestinal tract injuries ([6]; 5 mg/kg) was “widespread gastrointestinal tract injuries, e.g., intestinal hemorrhage”, the gastrointestinal tract injuries ([6]; sc) was “did not experience the same levels of gastrointestinal tract injuries” and the “clinical signs of toxicity” value ([7]; 0.15 mg/kg/day for up to 28 days) was “emesis and decreased activity during the first week of dosing”. The “tolerability” value ([7]; high-dose group 0.15 mg/kg/day for up to 28 days) was “tolerated”, the “muscle physiology / muscle regeneration” value [8] was “effective in improving muscle physiology and/or reducing the pressure on muscle regeneration” and the “absolute bioavailability versus oral solution” value [9] was “increased”. The Cmax ([9]; male, Beagle, iv, 0.05 mg/kg) was 6.95 ng/mL, the concentration at 0.083 h [9, 12] was 6.96 ng/mL and the concentration at 0.5 h [9, 12] was 4.47 ng/mL. The concentration at 1 h [9, 12] was 3.81 ng/mL, the concentration at 2 h [9, 12] was 2.29 ng/mL and the concentration at 4 h [9, 12] was 1.74 ng/mL. The concentration at 8 h [9, 12] was 1.08 ng/mL, the concentration at 12 h [9, 12] was 0.76 ng/mL and the concentration at 24 h [9, 12] was 0.67 ng/mL. For the same compound, the concentration at 48 h [9, 12] was 0.23 ng/mL, the concentration at 0.083 h [9, 13] was 7.81 ng/mL and the concentration at 0.5 h [9, 13] was 5.52 ng/mL. The concentration at 1 h [9, 13] was 3.55 ng/mL, the concentration at 2 h [9, 13] was 2.13 ng/mL and the concentration at 8 h [9, 13] was 0.8 ng/mL. The half-life ([9]; male, Beagle, iv, 0.05 mg/kg) was 621 min, the Tmax ([9]; male, Beagle, iv, 0.05 mg/kg, tmax) was 4.8 min and the concentration at 0.5 h [9, 14] was 6.41 ng/mL. The concentration at 1 h [9, 14] was 4.97 ng/mL, the concentration at 2 h [9, 14] was 3.68 ng/mL and the concentration at 4 h [9, 14] was 1.87 ng/mL. For the same compound, the concentration at 8 h [9, 14] was 1.38 ng/mL, the concentration at 12 h [9, 14] was 1.14 ng/mL and the concentration at 24 h [9, 14] was 0.53 ng/mL. It also gave a concentration at 48 h [9, 14] of 0.2 ng/mL, a half-life ([9]; male, Beagle, po, 0.15 mg/kg) of 810 min and a Tmax ([9]; male, Beagle, po, 0.15 mg/kg, tmax) of 34.8 min. The “Sample Conc. (plasma)” value ([9]; male, Beagle, sc, 0.03 mg/kg, 48 h) was 0.12 ng/mL, the Cmax ([9]; male, Beagle, sc, 0.03 mg/kg) was 3.66 ng/mL and the concentration at 0.5 h [9, 15] was 3.62 ng/mL. It also gave a concentration at 1 h [9, 15] of 1.79 ng/mL, a concentration at 2 h [9, 15] of 1.4 ng/mL and a concentration at 4 h [9, 15] of 1 ng/mL. For the same compound, the concentration at 8 h [9, 15] was 0.63 ng/mL, the concentration at 12 h [9, 15] was 0.51 ng/mL and the concentration at 24 h [9, 15] was 0.14 ng/mL. The concentration at 0.5 h [9, 16] was 2.82 ng/mL, the concentration at 1 h [9, 16] was 1.67 ng/mL and the concentration at 48 h [9, 16] was 0.16 ng/mL. The Tmax ([9]; male, Beagle, sc, 0.03 mg/kg, tmax) was 30 min, the Tmax ([9]; male, beagle, po, 0.15 mg/kg) was 60 min and the animals with emesis [10] was 5 of 6. For the same compound, the “episodes of emesis (total emetic events)” value [10] was 18.
